{"source": "patent US8574831B2", "about": "“Mutational profiles in HIV-1 reverse transcriptase correlated with phenotypic drug resistance” (Virco N.V., priority 2000, dated 2013)", "tested_on": "HIV with mutations in the HIV protease sequence", "test": "Phenotypic fold resistance to protease inhibitors, protease mutations 84A/84L/84C/54M/54L/54V in a background (Examples 8-13)", "assay_type": "cell-based, HIV-1", "summary_of_the_method": "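Recombinant-virus phenotyping: patient-derived PR/RT sequences amplified by PCR and recombined in CD4+ T cells into an HXB2 proviral clone deleted for those sequences. Chimeric viruses grown across drug concentrations; IC50 determined, and fold-resistance expressed as IC50 ratio versus wild-type susceptible laboratory HIV-1 tested in parallel.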"}
{"smiles": "CC(C)c1nc(CN(C)C(=O)N[C@H](C(=O)N[C@@H](Cc2ccccc2)C[C@H](O)[C@H](Cc2ccccc2)NC(=O)OCc2cncs2)C(C)C)cs1", "note": "[Ritonavir, ritonavir]", "values": [{"measurement": "Fold change in IC50", "setting": "Table 12, V055199, genotype 10I + 33F + 54M + 90M", "result": 18.4, "unit": "fold"}, {"measurement": "Fold change in IC50", "setting": "Table 13, V19263, genotype 77I", "result": 0.4, "unit": "fold"}, {"measurement": "Fold change in IC50", "setting": "Table 13, V20160, genotype WT", "result": 0.6, "unit": "fold"}, {"measurement": "Fold change in IC50", "setting": "Table 13, V021667, genotype 10I", "result": 1.2, "unit": "fold"}, {"measurement": "Fold change in IC50", "setting": "Table 13, V030496, genotype 10I + 77I", "result": 0.5, "unit": "fold"}, {"measurement": "Fold change in IC50", "setting": "Table 13, V048868, genotype 10I + 54L + 71V + 77I + 90M", "result": 9.7, "unit": "fold"}, {"measurement": "Fold change in IC50", "setting": "Table 13, V048874, genotype 10I + 33F + 54L + 71V + 77I + 90M", "result": 21.3, "unit": "fold"}, {"measurement": "Fold change in IC50", "setting": "Table 13, V048875, genotype 10I + 33F + 54L + 71V + 77I + 90M", "result": 25.1, "unit": "fold"}, {"measurement": "Fold change in IC50", "setting": "Table 13, V048877, genotype 10I + 33F + 77I + 90M", "result": 20.5, "unit": "fold"}, {"measurement": "Fold change in IC50", "setting": "Table 13, V048880, genotype 10I + 33F + 77I + 90M", "result": 3.6, "unit": "fold"}, {"measurement": "Fold change in IC50", "setting": "Table 13, V052940, genotype 71V", "result": 0.4, "unit": "fold"}, {"measurement": "Fold change in IC50", "setting": "Table 13, V052942, genotype 10I + 71V", "result": 0.6, "unit": "fold"}, {"measurement": "Fold change in IC50", "setting": "Table 13, V052943, genotype 10I + 90M", "result": 1.8, "unit": "fold"}, {"measurement": "Fold change in IC50", "setting": "Table 13, V052944, genotype 10I + 90M", "result": 1.5, "unit": "fold"}, {"measurement": "Fold change in IC50", "setting": "Table 13, V052945, genotype 77I + 90M", "result": 1.9, "unit": "fold"}, {"measurement": "Fold change in IC50", "setting": "Table 13, V052946, genotype 71V + 90M", "result": 2.0, "unit": "fold"}, {"measurement": "Fold change in IC50", "setting": "Table 13, V052947, genotype 10I + 77I + 90M", "result": 6.9, "unit": "fold"}, {"measurement": "Fold change in IC50", "setting": "Table 13, V052948, genotype 10I + 71V + 90M", "result": 10.5, "unit": "fold"}, {"measurement": "Fold change in IC50", "setting": "Table 13, V052949, genotype 10I + 71V + 77I + 90M", "result": 2.3, "unit": "fold"}, {"measurement": "Fold change in IC50", "setting": "Table 13, V052950, genotype 33F", "result": 1.5, "unit": "fold"}, {"measurement": "Fold change in IC50", "setting": "Table 13, V052951, genotype 33F + 77I", "result": 0.3, "unit": "fold"}, {"measurement": "Fold change in IC50", "setting": "Table 13, V052953, genotype 10I + 33F + 77I", "result": 1.1, "unit": "fold"}, {"measurement": "Fold change in IC50", "setting": "Table 13, V052954, genotype 33F + 77I + 90M", "result": 2.2, "unit": "fold"}, {"measurement": "Fold change in IC50", "setting": "Table 13, V052955, genotype 33F + 71V + 90M", "result": 77.9, "unit": "fold"}, {"measurement": "Fold change in IC50", "setting": "Table 13, V052968, genotype 10L/I + 33F/L + 54L + 77I", "result": 4.7, "unit": "fold"}, {"measurement": "Fold change in IC50", "setting": "Table 13, V052969, genotype 10I + 33F + 54L + 90M", "result": 4.8, "unit": "fold"}, {"measurement": "Fold change in IC50", "setting": "Table 13, V052970, genotype 54L", "result": 2.0, "unit": "fold"}, {"measurement": "Fold change in IC50", "setting": "Table 13, V052971, genotype 10I + 54L", "result": 1.5, "unit": "fold"}, {"measurement": "Fold change in IC50", "setting": "Table 13, V052972, genotype 54L + 77I", "result": 2.4, "unit": "fold"}, {"measurement": "Fold change in IC50", "setting": "Table 13, V052973, genotype 10I + 54L + 77I", "result": 1.4, "unit": "fold"}, {"measurement": "Fold change in IC50", "setting": "Table 13, V052974, genotype 10I + 54L + 90M", "result": 3.6, "unit": "fold"}, {"measurement": "Fold change in IC50", "setting": "Table 13, V052975, genotype 10I + 54L + 71V + 90M", "result": 30.5, "unit": "fold"}, {"measurement": "Fold change in IC50", "setting": "Table 13, V052976, genotype 10I + 54L + 71V + 77I + 90M", "result": 6.5, "unit": "fold"}, {"measurement": "Fold change in IC50", "setting": "Table 13, V053832, genotype 10I + 33F", "result": 2.9, "unit": "fold"}, {"measurement": "Fold change in IC50", "setting": "Table 13, V053854, genotype 54L + 71V", "result": 2.3, "unit": "fold"}, {"measurement": "Fold change in IC50", "setting": "Virco ID 214846, genotype 10I + 33F + 54V + 71V + 77I + 90M, vs mean IC50 of wild type laboratory HIV strain", "result": 57.6, "unit": "fold"}, {"measurement": "Fold change in IC50", "setting": "Virco ID V021667, genotype 10I, vs mean IC50 of wild type laboratory HIV strain", "result": 1.2, "unit": "fold"}, {"measurement": "Fold change in IC50", "setting": "Virco ID V030496, genotype 10I + 77I, vs mean IC50 of wild type laboratory HIV strain", "result": 0.5, "unit": "fold"}, {"measurement": "Fold change in IC50", "setting": "Virco ID V048876, genotype 33F + 54V + 77I + 90M, vs mean IC50 of wild type laboratory HIV strain", "result": 5.6, "unit": "fold"}, {"measurement": "Fold change in IC50", "setting": "Virco ID V048877, genotype 10I + 33F + 77I + 90M, vs mean IC50 of wild type laboratory HIV strain", "result": 20.5, "unit": "fold"}, {"measurement": "Fold change in IC50", "setting": "Virco ID V048880, genotype 10I + 33F + 77I + 90M, vs mean IC50 of wild type laboratory HIV strain", "result": 3.6, "unit": "fold"}, {"measurement": "Fold change in IC50", "setting": "Virco ID V052940, genotype 71V, vs mean IC50 of wild type laboratory HIV strain", "result": 0.4, "unit": "fold"}, {"measurement": "Fold change in IC50", "setting": "Virco ID V052942, genotype 10I + 71V, vs mean IC50 of wild type laboratory HIV strain", "result": 0.6, "unit": "fold"}, {"measurement": "Fold change in IC50", "setting": "Virco ID V052943, genotype 10I + 90M, vs mean IC50 of wild type laboratory HIV strain", "result": 1.8, "unit": "fold"}, {"measurement": "Fold change in IC50", "setting": "Virco ID V052944, genotype 10I + 90M, vs mean IC50 of wild type laboratory HIV strain", "result": 1.5, "unit": "fold"}, {"measurement": "Fold change in IC50", "setting": "Virco ID V052946, genotype 71V + 90M, vs mean IC50 of wild type laboratory HIV strain", "result": 2.0, "unit": "fold"}, {"measurement": "Fold change in IC50", "setting": "Virco ID V052947, genotype 10I + 77I + 90M, vs mean IC50 of wild type laboratory HIV strain", "result": 6.9, "unit": "fold"}, {"measurement": "Fold change in IC50", "setting": "Virco ID V052948, genotype 10I + 71V + 90M, vs mean IC50 of wild type laboratory HIV strain", "result": 10.5, "unit": "fold"}, {"measurement": "Fold change in IC50", "setting": "Virco ID V052949, genotype 10I + 71V + 77I + 90M, vs mean IC50 of wild type laboratory HIV strain", "result": 2.3, "unit": "fold"}, {"measurement": "Fold change in IC50", "setting": "Virco ID V052950, genotype 33F, vs mean IC50 of wild type laboratory HIV strain", "result": 1.5, "unit": "fold"}, {"measurement": "Fold change in IC50", "setting": "Virco ID V052951, genotype 33F + 77I, vs mean IC50 of wild type laboratory HIV strain", "result": 0.3, "unit": "fold"}, {"measurement": "Fold change in IC50", "setting": "Virco ID V052953, genotype 10I + 33F + 77I, vs mean IC50 of wild type laboratory HIV strain", "result": 1.1, "unit": "fold"}, {"measurement": "Fold change in IC50", "setting": "Virco ID V052954, genotype 33F + 77I + 90M, vs mean IC50 of wild type laboratory HIV strain", "result": 2.2, "unit": "fold"}, {"measurement": "Fold change in IC50", "setting": "Virco ID V052955, genotype 33F + 71V + 90M, vs mean IC50 of wild type laboratory HIV strain", "result": 77.9, "unit": "fold"}, {"measurement": "Fold change in IC50", "setting": "Virco ID V052957, genotype 10I + 33F + 54V + 90M, vs mean IC50 of wild type laboratory HIV strain", "result": 13.9, "unit": "fold"}, {"measurement": "Fold change in IC50", "setting": "Virco ID V052958, genotype 10I + 33F + 54V + 77I + 90M, vs mean IC50 of wild type laboratory HIV strain", "result": 16.6, "unit": "fold"}, {"measurement": "Fold change in IC50", "setting": "Virco ID V052959, genotype 10I + 33F + 54V + 77I + 90M, vs mean IC50 of wild type laboratory HIV strain", "result": 28.5, "unit": "fold"}, {"measurement": "Fold change in IC50", "setting": "Virco ID V052960, genotype 10I + 33F + 54V + 71V + 90M, vs mean IC50 of wild type laboratory HIV strain", "result": 70.9, "unit": "fold"}, {"measurement": "Fold change in IC50", "setting": "Virco ID V052961, genotype 54V, vs mean IC50 of wild type laboratory HIV strain", "result": 1.2, "unit": "fold"}, {"measurement": "Fold change in IC50", "setting": "Virco ID V052962, genotype 10I + 54V, vs mean IC50 of wild type laboratory HIV strain", "result": 1.0, "unit": "fold"}, {"measurement": "Fold change in IC50", "setting": "Virco ID V052963, genotype 54V + 77I + 90M, vs mean IC50 of wild type laboratory HIV strain", "result": 2.0, "unit": "fold"}, {"measurement": "Fold change in IC50", "setting": "Virco ID V052964, genotype 54V + 71V + 90M, vs mean IC50 of wild type laboratory HIV strain", "result": 7.1, "unit": "fold"}, {"measurement": "Fold change in IC50", "setting": "Virco ID V052965, genotype 10I + 54V + 77I + 90M, vs mean IC50 of wild type laboratory HIV strain", "result": 12.5, "unit": "fold"}, {"measurement": "Fold change in IC50", "setting": "Virco ID V052966, genotype 10I + 54V + 71V + 90M, vs mean IC50 of wild type laboratory HIV strain", "result": 44.5, "unit": "fold"}, {"measurement": "Fold change in IC50", "setting": "Virco ID V052967, genotype 10I + 54V + 71V + 77I + 90M, vs mean IC50 of wild type laboratory HIV strain", "result": 0.7, "unit": "fold"}, {"measurement": "Fold change in IC50", "setting": "Virco ID V053358, genotype 33F + 54V + 77I + 90M, vs mean IC50 of wild type laboratory HIV strain", "result": 4.9, "unit": "fold"}, {"measurement": "Fold change in IC50", "setting": "Virco ID V053831, genotype 33F + 54V, vs mean IC50 of wild type laboratory HIV strain", "result": 129.7, "unit": "fold"}, {"measurement": "Fold change in IC50", "setting": "Virco ID V053832, genotype 10I + 33F, vs mean IC50 of wild type laboratory HIV strain", "result": 2.9, "unit": "fold"}]}
